Here are results for two molecules from patent EP0168181A1, “Cyclic amides” (IMPERIAL CHEMICAL INDUSTRIES PLC, priority 1984, dated 1986).

The subject of the experiment is aldose reductase. Put plainly: in vivo aldose reductase inhibition in streptozotocin-diabetic rats (residual sorbitol in sciatic nerve). Particulars: oral dose necessary to reduce residual sorbitol level in sciatic nerve of dosed diabetic rat to level similar to normal undosed rat; dosed daily 2-5 days. The method, then:
Thus, rats are made diabetic (as evidenced by severe glucosuria being present) by dosing with streptozotocin. The animals are then dosed daily with the test compound for 2-5 days. The animals are then killed 2-4 hours after the final dose and the eye lenses and/or sciatic nerves are removed. After a standard work-up procedure the residual sorbitol levels in each tissue are determined by gas liquid chromatography after conversion to the poly-trimethylsilyl derivatives. Inhibition of aldose reductase in vivo is then assessed by comparing the residual sorbitol levels in tissues from the dosed diabetic group of rats with those of an undosed group of diabetic rats and an undosed, normal group of rats.
In the above in vivo test, an effective dose (ED) may be defined as the oral dose necessary to reduce the residual sorbitol level in the sciatic nerve of a dosed rat to a level similar to that in sciatic nerve in a normal, undosed-rat.

For the molecule `O=C1CC2(C(=O)N1)C(=O)N(Cc1ccc(Br)cc1F)c1c(Cl)cccc12` (single isomer, unassigned) [1'-(4-bromo-2-fluorobenzyl)-7'-chloro-spiro[pyrrolidine-3,3'-indoline]-2,2'5-trione], the “oral ED” value is “approximately 1.1 mg./kg”.
Under `O=C1CC2(C(=O)N1)C(=O)N(Cc1ccc(Br)cc1F)c1c(F)cccc12` (single isomer, unassigned) [l'-(4-bromo-2-fluorobenzyl)-7'-fluoro-spiro[pyrrolidine-3,3'-indolinel-2,2',5-trione] stands “approximately 5.6 mg./kg”.
